Biological target: T1, RORγ (Homo sapiens, UniProt P51449)
T1 construct: Gal4 (galactose-responsive transcription factor); expressed in transfected cells; host or cells: HEK293
T1 sequence (P51449 269-508 limits assumed): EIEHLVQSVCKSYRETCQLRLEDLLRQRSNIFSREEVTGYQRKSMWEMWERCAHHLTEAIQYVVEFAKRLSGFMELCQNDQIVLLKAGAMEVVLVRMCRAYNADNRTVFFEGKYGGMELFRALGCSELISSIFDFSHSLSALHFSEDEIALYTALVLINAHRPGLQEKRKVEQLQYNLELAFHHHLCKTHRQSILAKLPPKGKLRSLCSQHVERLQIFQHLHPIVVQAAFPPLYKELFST
Assay: RORγ Reporter Assay (Gal4)
Format: cell-based
Details: HEK293 co-transfected with RORγ LBD-Gal4 and luciferase reporter, 24 h incubation, absolute IC50; read-out: IC50
Procedure: RORγ Reporter Assay (Gal4)
The HEK293 cell line is co-transfected transiently with two plasmids, one with the RORγ ligand-binding domain fused to galactose-responsive transcription factor (Gal4), and the other with the luciferase reporter gene and Gal binding sites (UAS). This construction allows to determine the RORγ activity in a cellular system through the measurement of luminescence.
A suspension of RORγ reporter cells was dispensed into plates and cultured 2 h at 37° C. and 5% CO2. Media formulation consisted in DMEM/F-12 medium (Gibco) supplemented with 10% heat inactivated FBS (Sigma-Aldrich), non-essential aminoacids (Sigma-Aldrich), 2 mM Glutamax (Gibco) and 100 U/mF penicillin (Sigma-Aldrich). Dose-response curves with compounds were prepared in 100% DMSO and further diluted […] in culture medium. Compound solutions were added to the plate containing cells (final DMSO concentration of 0.1%) and incubated for 24 h at 37° C. and 5% CO2. Luciferase detection reagent was added to each well, and relative light units […] were quantified from each assay well using a plate reading luminometer.
Values of average RFU±S.D. were computed for all treatment sets, followed by the calculations of percent-reduction of RORγ activity in response to respective test compound. The following formula was used: activity=100*[1−[x test compound/average vehicle]where the theoretical minimum reduction (0% reduction).

IC50	Compound
10 nM	NC(=O)CN1CC[C@H](CNc2ncnc(N3CC(F)(F)C[C@@H]3c3ccc(C(F)(F)F)cc3)c2F)[C@@H](O)C1 (mixture of isomers) [Example H6-17, 2-((3RS,4RS)-4-(((6-((R)-4,4-difluoro-2-(4-(trifluoromethyl)phenyl)pyrrolidin-1-yl)-5-fluoropyrimidin-4-yl)amino)methyl)-3-hydroxypiperidin-1-yl)acetamide]
488 nM	NC(=O)CN1CC[C@H](CNc2ncnc(N3CC(F)(F)C[C@@H]3c3ccc(C(F)(F)F)cn3)c2F)[C@@H](O)C1 (mixture of isomers) [Example H6-20, 2-((3RS,4RS)-4-(((6-((R)-4,4-difluoro-2-(5-(trifluoromethyl)pyridin-2-yl)pyrrolidin-1-yl)-5-fluoropyrimidin-4-yl)amino)methyl)-3-hydroxypiperidin-1-yl)acetamide]
210 nM	NC(=O)CN1CCC(CNc2ncnc(N3C[C@H](F)C[C@@H]3c3ccc(C(F)(F)F)cc3)c2F)CC1 (racemic) [Example H6-27, rac-2-(4-(((5-fluoro-6-((2R,4R)-4-fluoro-2-(4-(trifluoromethyl)phenyl)pyrrolidin-1-yl)pyrimidin-4-yl)amino)methyl)piperidin-1-yl)acetamide]
20 nM	NC(=O)CN1CC[C@H](CNc2ncnc(N3CCOC[C@@H]3c3ccc(C(F)(F)F)cc3)c2F)[C@@H](O)C1 (single isomer, unassigned) [Example H6-7-1, 2-((3R*,4R*)-4-(((5-fluoro-6-((S)-3-(4-(trifluoromethyl)phenyl)morpholino)pyrimidin-4-yl)amino)methyl)-3-hydroxypiperidin-1-yl)acetamide]
35 nM	NC(=O)CN1CC[C@@H](CNc2ncnc(N3CCOC[C@@H]3c3ccc(C(F)(F)F)cc3)c2F)[C@H](O)C1 (single isomer, unassigned) [Example H6-7-2, 2-((3R*,4R*)-4-(((5-fluoro-6-((S)-3-(4-(trifluoromethyl)phenyl)morpholino)pyrimidin-4-yl)amino)methyl)-3-hydroxypiperidin-1-yl)acetamide]
100 nM	NC(=O)CN1CCC(CNc2ncnc(N3CCOC[C@@H]3c3ccc(C(F)(F)F)cc3)c2F)C(F)(F)C1 (single isomer, unassigned) [Example H6-9-1, 2-((R*)-3,3-difluoro-4-(((5-fluoro-6-((S)-3-(4-(trifluoromethyl)phenyl)morpholino)pyrimidin-4-yl)amino)methyl)piperidin-1-yl)acetamide]
18 nM	NC(=O)CN1CCC(CNc2ncnc(N3CCOC[C@@H]3c3ccc(C(F)(F)F)cc3)c2F)C(F)(F)C1 (single isomer, unassigned) [Example H6-9-2, 2-((R*)-3,3-difluoro-4-(((5-fluoro-6-((S)-3-(4-(trifluoromethyl)phenyl)morpholino)pyrimidin-4-yl)amino)methyl)piperidin-1-yl)acetamide]
39 nM	NC(=O)CN1CC[C@H](CNc2ncnc(N3CCOC[C@@H]3c3ccc(C(F)(F)F)cc3)c2F)[C@@H](F)C1 (single isomer, unassigned) [Example H6-10-1, 2-((3R*,4R*)-3-fluoro-4-(((5-fluoro-6-((S)-3-(4-(trifluoromethyl)phenyl)morpholino)pyrimidin-4-yl)amino)methyl)piperidin-1-yl)acetamide]
13 nM	NC(=O)CN1CC[C@H](CNc2ncnc(N3CCOC[C@@H]3c3ccc(C(F)(F)F)cc3)c2F)[C@@H](F)C1 (single isomer, unassigned) [Example H6-10-2, 2-((3R*,4R*)-3-fluoro-4-(((5-fluoro-6-((S)-3-(4-(trifluoromethyl)phenyl)morpholino)pyrimidin-4-yl)amino)methyl)piperidin-1-yl)acetamide]
360 nM	NC(=O)CN1CCC(CNc2ncnc(N3CCOC[C@@H]3c3ccc(C(F)(F)F)cn3)c2F)C(F)(F)C1 (single isomer, unassigned) [Example H6-11-1, 2-((R*)-3,3-difluoro-4-(((5-fluoro-6-((S)-3-(5-(trifluoromethyl)pyridin-2-yl)morpholino)pyrimidin-4-yl)amino)methyl)piperidin-1-yl)acetamide]
550 nM	NC(=O)CN1CC[C@H](CNc2ncnc(N3CCOC[C@@H]3c3ccc(C(F)(F)F)cn3)c2F)[C@H](F)C1 (single isomer, unassigned) [Example H6-12-1, 2-((3R*,4S*)-3-fluoro-4-(((5-fluoro-6-((S)-3-(5-(trifluoromethyl)pyridin-2-yl)morpholino)pyrimidin-4-yl)amino)methyl)piperidin-1-yl)acetamide]
910 nM	NC(=O)CN1CC[C@H](CNc2ncnc(N3CCOC[C@@H]3c3ccc(C(F)(F)F)cn3)c2F)[C@H](F)C1 (single isomer, unassigned) [Example H6-12-2, 2-((3R*,4S*)-3-fluoro-4-(((5-fluoro-6-((S)-3-(5-(trifluoromethyl)pyridin-2-yl)morpholino)pyrimidin-4-yl)amino)methyl)piperidin-1-yl)acetamide]
160 nM	NC(=O)CN1CC[C@H](CNc2ncnc(N3CCOC[C@@H]3c3ccc(C(F)(F)F)cn3)c2F)[C@@H](F)C1 (single isomer, unassigned) [Example H6-13-1, 2-((3R*,4R*)-3-fluoro-4-(((5-fluoro-6-((S)-3-(5-(trifluoromethyl)pyridin-2-yl)morpholino)pyrimidin-4-yl)amino)methyl)piperidin-1-yl)acetamide]
9 nM	NC(=O)CN1CCC(CNc2ncnc(N3CC(F)(F)C[C@@H]3c3ccc(C(F)(F)F)cc3)c2F)C(F)(F)C1 (single isomer, unassigned) [Example H6-15-1, 2-((R*)-4-(((6-((R)-4,4-difluoro-2-(4-(trifluoromethyl)phenyl)pyrrolidin-1-yl)-5-fluoropyrimidin-4-yl)amino)methyl)-3,3-difluoropiperidin-1-yl)acetamide]
25 nM	NC(=O)CN1CCC(CNc2ncnc(N3CC(F)(F)C[C@@H]3c3ccc(C(F)(F)F)cc3)c2F)C(F)(F)C1 (single isomer, unassigned) [Example H6-15-2, 2-((R*)-4-(((6-((R)-4,4-difluoro-2-(4-(trifluoromethyl)phenyl)pyrrolidin-1-yl)-5-fluoropyrimidin-4-yl)amino)methyl)-3,3-difluoropiperidin-1-yl)acetamide]
14 nM	NC(=O)CN1CC[C@H](CNc2ncnc(N3CC(F)(F)C[C@@H]3c3ccc(C(F)(F)F)cc3)c2F)[C@@H](F)C1 (single isomer, unassigned) [Example H6-16-1, 2-((3R*,4R*)-4-(((6-((R)-4,4-difluoro-2-(4-(trifluoromethyl)phenyl)pyrrolidin-1-yl)-5-fluoropyrimidin-4-yl)amino)methyl)-3-fluoropiperidin-1-yl)acetamide]
10 nM	NC(=O)CN1CC[C@H](CNc2ncnc(N3CC(F)(F)C[C@@H]3c3ccc(C(F)(F)F)cc3)c2F)[C@@H](F)C1 (single isomer, unassigned) [Example H6-16-2, 2-((3R*,4R*)-4-(((6-((R)-4,4-difluoro-2-(4-(trifluoromethyl)phenyl)pyrrolidin-1-yl)-5-fluoropyrimidin-4-yl)amino)methyl)-3-fluoropiperidin-1-yl)acetamide]
31 nM	NC(=O)CN1CC[C@H](CNc2ncnc(N3CC(F)(F)C[C@@H]3c3ccc(C(F)(F)F)cc3)c2F)[C@@H](O)C1 (single isomer, unassigned) [Example H6-17-2, 2-((3R*,4R*)-4-(((6-((R)-4,4-difluoro-2-(4-(trifluoromethyl)phenyl)pyrrolidin-1-yl)-5-fluoropyrimidin-4-yl)amino)methyl)-3-hydroxypiperidin-1-yl)acetamide]
140 nM	NC(=O)CN1CC[C@H](CNc2ncnc(N3CC(F)(F)C[C@@H]3c3ccc(C(F)(F)F)cn3)c2F)[C@@H](F)C1 (single isomer, unassigned) [Example H6-18-1, 2-((3R*,4R*)-4-(((6-((R)-4,4-difluoro-2-(5-(trifluoromethyl)pyridin-2-yl)pyrrolidin-1-yl)-5-fluoropyrimidin-4-yl)amino)methyl)-3-fluoropiperidin-1-yl)acetamide]
60 nM	NC(=O)CN1CC[C@H](CNc2ncnc(N3CC(F)(F)C[C@@H]3c3ccc(C(F)(F)F)cn3)c2F)[C@@H](F)C1 (single isomer, unassigned) [Example H6-18-2, 2-((3R*,4R*)-4-(((6-((R)-4,4-difluoro-2-(5-(trifluoromethyl)pyridin-2-yl)pyrrolidin-1-yl)-5-fluoropyrimidin-4-yl)amino)methyl)-3-fluoropiperidin-1-yl)acetamide]
46 nM	NC(=O)CN1CCC(CNc2ncnc(N3CC(F)(F)C[C@@H]3c3ccc(C(F)(F)F)cn3)c2F)C(F)(F)C1 (single isomer, unassigned) [Example H6-19-2, 2-((R*)-4-(((6-((R)-4,4-difluoro-2-(5-(trifluoromethyl)pyridin-2-yl)pyrrolidin-1-yl)-5-fluoropyrimidin-4-yl)amino)methyl)-3,3-difluoropiperidin-1-yl)acetamide]
